Where no end group is shown, it is not given here.
Assays:
HIV-1IIIB = test: HIV-1 antiviral assay in CEM-SS cells (MTS); assay type: cell-based; conditions: positive controls
HCMV strain AD169 = test: HCMV plaque formation assay in MRC-5 cells; conditions: for inhibition of HCMV plaque formation as compared to the virus control: 10 micrograms per ml, HCMV AD169, 7-10 days
[1] = system: hepatitis B virus (HBV) ayw strain; test: HBV assay in HepG2-2.2.15 cells (TaqMan PCR of secreted HBV DNA); assay type: cell-based; conditions: 10 micrograms per ml, six days, HBV DNA by TaqMan PCR
Source text: HepG2-2.2.15 is a stable cell line containing the hepatitis B virus (HBV) ayw strain genome (ATCC Cat. No. CRL-11997). Antiviral compounds blocking any late step of viral replication such as transcription, translation, pregenome encapsidation, reverse transcription, particle assembly and release can be identified and characterized using this cell line. In this assay, an active compound will reduce the production of secreted HBV from cells, measured by utilizing real time quantitative PCR (TaqMan) assay to directly and accurately measure HBV DNA copies.
HepG2-2.2.15 cells were plated in 96-well microtiter plates. After 16-24 hours the confluent monolayer of HepG2-2.2.15 cells was washed and the medium was replaced with complete medium containing test peptides—10 micrograms per ml—in duplicate. […] Six days following the initial administration of the peptides, the cell culture supernatants was collected, treated with pronase and DNAse and then used in a real-time quantitative TaqMan PCR assay. The PCR-amplified HBV DNA was detected in real-time by monitoring increases in fluorescence signals that result from the exonucleolytic degradation of a quenched fluorescence probe molecule that hybridizes to the amplified HBV DNA. […] Antiviral activity was calculated from the reduction in HBV DNA levels (% virus control). […]

TNF-a spleen cells = test: Th1/Th2 cytokine profiling assay: TNF-a; assay type: cell-based; conditions: 10 micrograms per ml; Ovalbumin-restimulated spleen cells of immunized Balb/c mice, 72 hours
Source text: (§1) The Balb/c mice (originated in 1923, it is a popular strain and is used in many different research disciplines. Also classified as an inbred from the production of 20 or more successive brother-sister matings, the Balb/c mouse is albino and small in size) were immunized on Days 1, 15, and 29 with Ovalbumin (Ovalbumin is the main protein found in egg white, commonly used to stimulate an immunological reaction in test animals) in PBS (5 micrograms/injection). On day 50, spleens of the mice were harvested (3 weeks after last boost with Ovalbumin). Cells were cultured (2×10^5/well in triplicate) and incubated with culture medium or test peptides—10 micrograms per ml—for 30 min. Thereafter, additional Ovalbumin was added to the cells at 10 micrograms/ml for in vitro restimulation of the cells. 72 hours later, cell supernatants were harvested and assayed using the Becton Dickinson Mouse Th1/Th2 Cytokine CBA Kit.

IFNγ spleen cells = test: Th1/Th2 cytokine profiling assay: IFNγ; assay type: cell-based; conditions: 10 micrograms per ml; Ovalbumin-restimulated spleen cells of immunized Balb/c mice, 72 hours
Source text: as §1

IL-2 spleen cells = test: Th1/Th2 cytokine profiling assay: IL-2; assay type: cell-based; conditions: 10 micrograms per ml; Ovalbumin-restimulated spleen cells of immunized Balb/c mice, 72 hours
Source text: as §1

IL-4 spleen cells = test: Th1/Th2 cytokine profiling assay: IL-4; assay type: cell-based; conditions: 10 micrograms per ml; Ovalbumin-restimulated spleen cells of immunized Balb/c mice, 72 hours
Source text: as §1

IL-5 spleen cells = test: Th1/Th2 cytokine profiling assay: IL-5; assay type: cell-based; conditions: 10 micrograms per ml; Ovalbumin-restimulated spleen cells of immunized Balb/c mice, 72 hours
Source text: as §1

[2] = system: Primary Human endothelial cells (HUVEC); test: Endothelial cell migration assay; assay type: cell-based; conditions: 10 micrograms per ml, 22 hours, combination peptide 1:peptide 2 0.95 mole:1.05 mole
Experimental: Thereafter, designated concentration of testing peptides—10 micrograms per ml—was added in duplicate wells.

HUVEC = test: Endothelial tube formation assay; assay type: cell-based, human; conditions: 10 micrograms per ml, 20 hours, combination peptide 1:peptide 2 0.95 mole:1.05 mole
Source text: Positive control was vehicle only.

| Molecule | antiviral activity of positive control compounds (HIV-1 assay) (HIV-1IIIB) | antiviral activity of positive control compound (HCMV assay) (HCMV strain AD169; positive control, HCMV AD169) | inhibition of HBV replication as compared to the virus control infection [1] [%] | TNF-a spleen cells; TH1 response (% of control) (TNF-a spleen cells) | IFNγ spleen cells; TH1 response (% of control) (IFNγ spleen cells) | IL-2 spleen cells (% of control) (IL-2 spleen cells) | IL-4 spleen cells; TH2 response (% of control) (IL-4 spleen cells) | IL-5 spleen cells; TH2 response (% of control) (IL-5 spleen cells) | inhibition of the migration of human endothelial cells [2] | inhibition of the tube formation of endothelial cells (HUVEC) [%] | inhibition of HCMV plaque formation as compared to the virus control (HCMV strain AD169) |
| --- | --- | --- | --- | --- | --- | --- | --- | --- | --- | --- | --- |
| Cc1cn([C@H]2C[C@H](N=[N+]=[N-])[C@@H](CO)O2)c(=O)[nH]c1=O [AZT] | expected levels of antiviral activity | – | – | – | – | – | – | – | – | – | – |
| Nc1nc(O)c2ncn(COC(CO)CO)c2n1 [Ganciclovir, reference compound] | – | expected levels of antiviral activity | – | – | – | – | – | – | – | – | – |
| CC(C)(C)NC(=O)[C@@H]1CN(Cc2cccnc2)CCN1C[C@@H](O)C[C@@H](Cc1ccccc1)C(=O)N[C@H]1c2ccccc2C[C@H]1O [indinavir] | expected levels of antiviral activity | – | – | – | – | – | – | – | – | – | – |
| Ac-muramyl-Ala-D-Glu-NH2 [Peptide 2] | – | – | 54.4 | 134.0 % of control | 146.7 % of control | 0.0 % of control | 94.5 % of control | 71.3 % of control | did not inhibit | 27 | did not inhibit |
| Ser-Phe-Leu-Leu-Arg-OH (SFLLR-OH) [Peptide 1] | – | – | 39.6 | 121.8 % of control | 129.1 % of control | 55.7 % of control | 0.0 % of control | 55.9 % of control | 29% | 12 | did not inhibit |

Reference: patent publication US20100204155A1, “USE OF THE PEPTIDE SFLLR-OH AND MURAMYL DIPEPTIDE AS THERAPEUTIC AGENTS” (priority 2007, published 2010)
